According to PubChem BioAssay (NCI):
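Dose response: 5 concentrations. Exposure: 48 h. Format: 96-well plates. Endpoint: linear interpolation; highest concentration if not reached. At the TGI there is no net growth.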

What was measured:
Test in all cases: NCI tumour cell line growth inhibition, 48 h
P388/ADR leukemia = tested on: P388/ADR leukemia
SN12K1 renal = tested on: SN12K1 renal
P388 leukemia = tested on: P388 leukemia
RXF-631 renal = tested on: RXF-631 renal

| SMILES | TGI (P388/ADR leukemia) [µM] | TGI (SN12K1 renal) [µM] | TGI (P388 leukemia) [µM] | TGI (RXF-631 renal) [µM] |
| --- | --- | --- | --- | --- |
| Cc1ccc2nc3c(C(=O)NCCN(C)C)cccc3cc2c1 | 4.69 | 3.35 | – | – |
| C#CCNC(=O)CCC(N)C(=O)O (centres undefined) | > 100 | > 100 | > 100 | – |
| COC1/C=C\C=C(/C)C(=O)NC2=CC(=O)C=C(C2=O)C(OC)C(C)CC(OC)C(OC)C(C)/C=C(/C)C1OC(N)=O (centres undefined) | 3.47 | 14.7 | – | – |
| NCCCNCCSSCc1ccccc1CSSCCNCCCN | – | – | – | > 100 |
| CSCCC(NC(=O)C(Cc1ccccc1)NC(=O)CNC(=O)CNC(=O)C(N)Cc1ccc(O)cc1)C(=O)O (centres undefined) | > 100 | > 100 | > 100 | – |
| COCCO | > 100 | > 100 | > 100 | – |
